The results in this text go back to ChEMBL document CHEMBL5678805, “Intermittent administration of MEK inhibitor GDC-0973 plus PI3K inhibitor GDC-0941 triggers robust apoptosis and tumor growth inhibition” (Cancer Res, 2012).

Experiment [1] can be described thus: Antitumor activity against human A375.X1 cells xenografted in mouse assessed as tumor growth inhibition at 30 mg/kg, po administered once a day for 21 days. Format: functional. The settings on record: A375.X1, 504 h, time 21 day, read-out: TGI.
A short description of experiment [2]: Antitumor activity against human A375.X1 cells xenografted in mouse assessed as tumor growth inhibition at 30 mg/kg, po administered once a day for 21 days in presence of (S)-(3,4-difluoro-2-((2-fluoro-4-iodophenyl)amino)phenyl)(3-hydroxy-3-(piperidin-2-yl)azetidin-1-yl)methanone. Format: functional. The settings on record: A375.X1, 504 h, time 21 day, read-out: TGI. In general terms: Xenograft models place foreign cells or tissue in a host animal.

In experiment [3] the test system is A2058. The experiment in a line: Antitumor activity against human A2058 cells xenografted in mouse assessed as tumor growth inhibition at 30 mg/kg, po administered once a day for 21 days. The settings on record: A2058, 504 h, time 21 day, read-out: TGI. Format: functional.
Experiment [4] deals with A2058. Put plainly: Antitumor activity against human A2058 cells xenografted in mouse assessed as tumor growth inhibition at 30 mg/kg, po administered once a day for 21 days in presence of (S)-(3,4-difluoro-2-((2-fluoro-4-iodophenyl)amino)phenyl)(3-hydroxy-3-(piperidin-2-yl)azetidin-1-yl)methanone. It counts as functional. The settings on record: A2058, 504 h, time 21 day, read-out: TGI.

In experiment [5] the test system is DLD-1. The experiment in a line: Antitumor activity against human DLD-1 cells xenografted in mouse assessed as tumor growth inhibition at 30 mg/kg, po administered once a day for 21 days. It counts as functional. The settings on record: DLD-1, 504 h, time 21 day, read-out: TGI.
For experiment [6], the system named is DLD-1. The experiment in a line: Antitumor activity against human DLD-1 cells xenografted in mouse assessed as tumor growth inhibition at 30 mg/kg, po administered once a day for 21 days in presence of (S)-(3,4-difluoro-2-((2-fluoro-4-iodophenyl)amino)phenyl)(3-hydroxy-3-(piperidin-2-yl)azetidin-1-yl)methanone. Format: functional. The settings on record: DLD-1, 504 h, time 21 day, read-out: TGI.

The test system of experiment [7] is NCI-H2122. The experiment in a line: Antitumor activity against human NCI-H2122 cells xenografted in mouse assessed as tumor growth inhibition at 30 mg/kg, po administered once a day for 21 days. It counts as functional. The conditions noted are these: NCI-H2122, 504 h, time 21 day, read-out: TGI.
Experiment [8] concerns NCI-H2122. The experiment in a line: Antitumor activity against human NCI-H2122 cells xenografted in mouse assessed as tumor growth inhibition at 30 mg/kg, po administered once a day for 21 days in presence of (S)-(3,4-difluoro-2-((2-fluoro-4-iodophenyl)amino)phenyl)(3-hydroxy-3-(piperidin-2-yl)azetidin-1-yl)methanone. Format: functional. The settings on record: NCI-H2122, 504 h, time 21 day, read-out: TGI.

The nature of experiment [9]: Antitumor activity against human A375.X1 cells xenografted in mouse assessed as tumor growth inhibition at 150 mg/kg, po administered every third day for 21 days. It counts as functional. The conditions noted are these: A375.X1, 504 h, time 21 day, read-out: TGI.
Experiment [10] is described as follows: Antitumor activity against human A375.X1 cells xenografted in mouse assessed as tumor growth inhibition at 150 mg/kg, po administered every third day for 21 days in presence of (S)-(3,4-difluoro-2-((2-fluoro-4-iodophenyl)amino)phenyl)(3-hydroxy-3-(piperidin-2-yl)azetidin-1-yl)methanone. It counts as functional. The settings on record: A375.X1, 504 h, time 21 day, read-out: TGI.

The subject of experiment [11] is A2058. The experiment in a line: Antitumor activity against human A2058 cells xenografted in mouse assessed as tumor growth inhibition at 150 mg/kg, po administered every third day for 21 days. It counts as functional. The conditions noted are these: A2058, 504 h, time 21 day, read-out: TGI.
For experiment [12], the system named is DLD-1. The experiment in a line: Antitumor activity against human DLD-1 cells xenografted in mouse assessed as tumor growth inhibition at 50 mg/kg, po administered every third day for 21 days. Format: functional. The conditions noted are these: DLD-1, 504 h, time 21 day, read-out: TGI.
The subject of experiment [13] is DLD-1. Put plainly: Antitumor activity against human DLD-1 cells xenografted in mouse assessed as tumor growth inhibition at 50 mg/kg, po administered every third day for 21 days in presence of (S)-(3,4-difluoro-2-((2-fluoro-4-iodophenyl)amino)phenyl)(3-hydroxy-3-(piperidin-2-yl)azetidin-1-yl)methanone. It counts as functional. The conditions noted are these: DLD-1, 504 h, time 21 day, read-out: TGI.

For experiment [14], the system named is NCI-H2122. The experiment in a line: Antitumor activity against human NCI-H2122 cells xenografted in mouse assessed as tumor growth inhibition at 150 mg/kg, po administered […] for 21 days. Format: functional. The conditions noted are these: NCI-H2122, 504 h, time 21 day, read-out: TGI.
Experiment [15] deals with NCI-H2122. Put plainly: Antitumor activity against human NCI-H2122 cells xenografted in mouse assessed as tumor growth inhibition at 150 mg/kg, po administered […] for 21 days in presence of (S)-(3,4-difluoro-2-((2-fluoro-4-iodophenyl)amino)phenyl)(3-hydroxy-3-(piperidin-2-yl)azetidin-1-yl)methanone. It counts as functional. The settings on record: NCI-H2122, 504 h, time 21 day, read-out: TGI.

A short description of experiment [16]: Antitumor activity against human A375.X1 cells xenografted in mouse assessed as tumor growth inhibition at 100 mg/kg, po administered once a day for 21 days. It counts as functional. The settings on record: A375.X1, 504 h, time 21 day, read-out: TGI.
Experiment [17] can be described thus: Antitumor activity against human A375.X1 cells xenografted in mouse assessed as tumor growth inhibition at 100 mg/kg, po administered once a day for 21 days in presence of (S)-(3,4-difluoro-2-((2-fluoro-4-iodophenyl)amino)phenyl)(3-hydroxy-3-(piperidin-2-yl)azetidin-1-yl)methanone. It counts as functional. The conditions noted are these: A375.X1, 504 h, time 21 day, read-out: TGI.

The test system of experiment [18] is A2058. Put plainly: Antitumor activity against human A2058 cells xenografted in mouse assessed as tumor growth inhibition at 100 mg/kg, po administered once a day for 21 days. It counts as functional. The settings on record: A2058, 504 h, time 21 day, read-out: TGI.
Experiment [19] concerns NCI-H2122. Put plainly: Antitumor activity against human NCI-H2122 cells xenografted in mouse assessed as tumor growth inhibition at 100 mg/kg, po administered once a day for 21 days. Format: functional. The conditions noted are these: NCI-H2122, 504 h, time 21 day, read-out: TGI.
The test system of experiment [20] is NCI-H2122. The experiment in a line: Antitumor activity against human NCI-H2122 cells xenografted in mouse assessed as tumor growth inhibition at 100 mg/kg, po administered once a day for 21 days in presence of (S)-(3,4-difluoro-2-((2-fluoro-4-iodophenyl)amino)phenyl)(3-hydroxy-3-(piperidin-2-yl)azetidin-1-yl)methanone. It counts as functional. The conditions noted are these: NCI-H2122, 504 h, time 21 day, read-out: TGI.

In experiment [21] the test system is A2058. The experiment in a line: Antitumor activity against human A2058 cells harboring BRAF V600E/PTEN deletion mutant xenografted in mouse assessed as decrease in tumor volume at 1.5 mg/kg, po administered once daily for 21 days in presence of GDC-0973 by digital calipers analysis. It counts as functional, organism-based. The conditions noted are these: time 21.0 day.

In experiment [22] the test system is A2058. Put plainly: Antitumor activity against human A2058 cells harboring BRAF V600E/PTEN deletion mutant xenografted in mouse assessed as decrease in tumor volume at 10 mg/kg, po administered once weekly for 21 days in presence of GDC-0973 by digital calipers analysis. It counts as functional, organism-based. The settings on record: time 21.0 day.

Structures are written as SMILES. Calls of active or inactive are those of the source. The rule behind the calls is not given here.

`CS(=O)(=O)N1CCN(Cc2cc3nc(-c4cccc5[nH]ncc45)nc(N4CCOCC4)c3s2)CC1` [PICTILISIB]: the inhibition in vivo at 30 mg/kg was found to be 23% in experiment [1]; 69% in [2]; 24% in [3]; 73% in [4]; 63% in [5]; 88% in experiment [6]. The inhibition in vivo at 30 mg/kg is 63% in experiment [7] and 75% in experiment [8]. Further, the inhibition in vivo at 150 mg/kg worked out at 57% in [9]; 118% in experiment [10]; 50% in experiment [11]; 43% in experiment [14]; 87% in experiment [15]. The inhibition in vivo at 50 mg/kg in experiment [12] came to 13%; in experiment [13], 72%. Also, the inhibition in vivo at 100 mg/kg in [16] was -2%; in experiment [17], 122%; in [18], 58%; in experiment [19], 91%; in [20], 156%.
`Cc1c(CN2CCN(C(=O)[C@H](C)O)CC2)sc2c(N3CCOCC3)nc(-c3cnc(N)nc3)nc12`: the outcome in [21] and in experiment [22] was Active.
